In US20070026090A1, “Treatment and prevention of inflammatory disease and mitochondrial dysfunction with high dose selenium” (priority 2003, published 2007):
Entries after “also recorded” stand apart in the source; their conditions may differ.

Columns and labels:
[1] = mice, at 60 and 90 days; as selenocysteine; cited from earlier work
[2] = system: Electron Transport Chain (complex 1); assay: Oxygen consumption of fresh colon tissue with rotenone; conditions: healthy rat colon tissue; 20 μg/ml rotenone (FIG. 4)
Procedure: Mitochondrial respiration activity in colon tissue: Mitochondrial respiration was measured by direct assessment of oxygen consumption of the tissue. Briefly, colons were removed, chilled on ice, and washed extensively with cold PBS. Colon tissue samples (5-10 mm in width, 100 mg) were incubated at ambient temperature in PBS supplemented with 5 mM glucose. Oxygen consumption was measured polarographically using a computerized Clark-type oxygen electrode. The addition of the Electron Transport Chain (complex 1) inhibitor rotenone was used to determine whether the majority of oxygen consumption measured in the colon samples was mitochondrial respiration-dependent.

[3] = system: glutathione peroxidase (GPx); assay: GPx activity in macrophage cell extract; format: cell-based, murine; conditions: 24 h; range 0.5-30 μM (FIG. 8B)
Procedure: (§1) Cell culture: Murine J774.2 macrophages (kindly provided by Prof. Dov Zipori from the Weizmann Institute of Science) were grown in RPMI medium supplemented with 10% (w/v) fetal calf serum, penicillin (100 U/ml), streptomycin (100 μg/ml) and 1× glutamine at 37° C. in a humidified atmosphere consisting of 95% air and 5% CO2. Experiments were performed on cells at 60% confluence.
GPx activity: GPx activity was determined by following the rate of NADPH oxidation at 340 nm in the presence of the substrates: 3 mM glutathione (GSH), 1.2 U glutathione reductase (GR) and 1.5% H2O2, using a microfluorometer plate reader (GENios, Tecan, Austria). The reaction contained 500 μl Tris reaction buffer (100 mM Tris Hcl, 300 mM Kcl, 5 mM EDTA, 1 mM NaN3, pH 7.0), substrates and 100 μl cell extract. Macrophages were treated with selenium for 24 h. Wells were washed twice with PBS, cells permeabilized, and scraped using 200 μl 0.2% Triton X-100. The reaction was recorded every minute for 25 minutes. Slopes were calculated and the results were adjusted according to the protein amount calculated with the Bradford reagent.

[4] = Selenium incorporation into colon tissue (ICP-AES); format: in vivo, rat
Procedure: Measurement of selenium incorporation into colon tissue: inductively coupled plasma (ICP) method: Colon tissue samples were prepared for analysis of selenium content by microwave-assisted digestion using an MLS 1200 mega microwave digestion unit [Milestone Sorisole (BG), Italy]. At the conclusion of the digestion period the vessels were allowed to cool down to room temperature and were uncapped. Liquid residues were taken up in water, transferred into 25-ml calibrated flasks and equilibrated to 25 ml volume with water. Analyses were conducted on portions of these solutions, versus multi-element selenium standards from Merck (Merck and Co, EMBD Biosciences, San Diego Calif.) in the same solvent. Selenium (Se) was determined by ICP-atomic emission spectrometry (AES) at 196.090 nm. An ICP-AES system, model “Spectroflame Modula E” from Spectro, Kleve, Germany was used with a cross-flow nebulizer. The power level was 1.2 kW, coolant flow 15 l/min, auxiliary flow 0.5 l/min and nebulizer flow 0.5 l/min. Observation height was 10 mm above the coil.

[5] = Cell viability (PI exclusion, flow cytometry); format: cell-based, murine; conditions: mouse, 10 μM during or after activation (FIGS. 14A, 14B); read-out: decrease in cell viability, activated and inactivated cells
Procedure: Experiments were performed on cells at 60% confluence.
Determination of cell viability: Cell-membrane integrity was detected by flow cytometer (FACSort, Becton Dickenson and Co., San Jose, Calif. USA) as a measurement of cell viability. For this assay, the nonpermeant DNA-intercalating dye propidium iodide (PI), which is excluded by viable cells, was used. Fluorescence settings were excitation at 488 nm and emission at 575 nm. Data were collected from at least 10,000 cells.

[6] = mice and rats; up to 0.8 mg/kg body weight selenium; cited from earlier work
UCP2 = UCP2 transcription and expression (RTPCR, Western blot); format: cell-based, murine
Procedure: as §1
(§2) Western blots (Sp1, MnSOD, UCP2): Cells were grown in six-well tissue culture plates, treated with selenium for 72 h and activated with LPS and IFN-γ for 24 h. The wells were washed with PBS, scraped and centrifuged
(§3) (5 min. 2000 RPM), and lysed by addition of boiling hot lysis buffer (1% SDS, 1 mM sodium ortho-vanadate, 10 mM Tris pH 7.4) to the pellets. Protein content was measured (BIO RAD protein assay kit) and equalized. Sample buffer (containg SDS) was added and the samples were boiled. The samples were subjected to SDS-PAGE followed by western blot analysis. Separated proteins were transferred electrophoretically from the gel to a nitrocellulose membrane (Amersham International plc, Buckinghamshire, ENGLAND). The membrane was blocked in TBS (0.15 M NaCl/10 mM Tris/HCl, pH7.4) containing 5% (v/v) skimmed milk (Blotto), then incubated over night with primary antibodies at RT (diluted 1/2000 in blotto). After being washed six times in TBST [TBS containing 0.05% (v/v) Tween 20], the membrane was incubated for 2 h at room temperature with secondary antibody (diluted 1/5000 in blotto). Immunoreactive bands were detected with ECL western blotting detection reagents (Amersham Pharmacia Biotech, Buckingammshire England) and developed on film (Fuji super RX, Dusseldorf, Germany). Primary antibodies for Sp1 and MnSOD were from BD Transduction Laboratories (Becton Dickenson and Co., San Jose, Calif. USA) and for UCP2 from Alpha Diagnostics LTD (Warszaw, Poland). Secondary antibodies were from Jackson ImmunoResearch (Jackson Labs, Bar Harbor, Maine, USA).
Reverse transcriptase-PCR (RTPCR): Total RNA was prepared and isolated by the Tri-Reagent method according to the manufacturer's protocol (Sigma, St. Louis Mo., USA). Total RNA (1 μg) was converted into cDNA using Reverse-iT first strand synthesis kit (Abgene, UK). Amplification of MnSOD and UCP2 sequences was performed by incubating 10 ng equivalents of DNA with the following oligonucleotide primers:
Left (sense), 5′-[…]-3′ (SEQ ID NO:7) corresponding to nucleotides 372 to 392 of mouse mRNA (GenBank Accession No. NM 011671).
Right (antisense) 5′[…]-3′ (SEQ ID NO: 8) corresponding to nucleotides 826 to 846 of mouse mRNA (GenBank Accession No. NM 011671). The expected PCR product was 474 bp. Actual PCR product was approximately 474 bp, measured on 1.25% agarose gel in TAE containing ethidium bromide.
(§4) PCR was performed with 28 cycles (25 cycles for GAPDH) of 30 seconds at 96° C., 30 seconds at 58° C. and 1 min at 72° C. RTPCR products were analyzed on 1.3% (w/v) agarose gels.

MnSOD = MnSOD transcription and expression (RTPCR, Western blot); format: cell-based, murine; conditions: LPS + INFγ activated; 24 hours; range 0.5-5 μM (FIG. 11)
Procedure: as §1, §2
as §3, with “Primary antibodies for Sp1 and MnSOD were from BD Transduction Laboratories (Becton Dickenson and Co., San Jose, Calif. USA) and for UCP2 from Alpha Diagnostics LTD (Warszaw, Poland). Secondary antibodies were from Jackson ImmunoResearch (Jackson Labs, Bar Harbor, Maine, USA).” left out
Right (antisense) 5′[…]-3′ (SEQ ID NO: 6) corresponding to nucleotides 622 to 640 of mouse mRNA region (GenBank Accession No. NM 013671). […] Actual PCR product was approximately 570 bp, measured on 1.25% agarose gel in TAE containing ethidium bromide.
as §4

[7] = system: myeloperoxidase (MPO) activity; assay: Tissue inflammation: myeloperoxidase activity in colon tissue; format: in vivo, rat; conditions: 24 h after TNBS; 16 ppm sodium selenite in drinking water, three weeks (FIG. 3 column D)
Procedure: Tissue inflammation-Myeloperoxidase activity: Colonic tissue samples (approximately 100-120 mg) were collected 4 cm proximal to the anus. Each tissue sample was homogenized in a solution containing 0.5% hexa-decyl-trimethyl-ammonium bromide (HTAB) (Sigma-Aldrich Corp, St. Louis, Mo.) buffer (0.5% HTAB in 50 mM phosphate buffer, pH 6.0). Tissue samples were minced in a test tube containing 1 ml of HTAB buffer on ice and homogenized with a Polytron tissue homogenizer (Brinkmann Instruments, Inc, Westbury N.Y., USA). The pooled homogenates and washes were sonicated in water for 20 seconds. After three cycles of freeze-thawing, the sonicated samples were centrifuged in cold for 15 min. at 40,000×g. Myeloperoxidase activity (MPO) was assayed in the supernatant as described by Krawisz (Krawisz et al., 1984) after addition of O-dianizidine-HCl (Sigma-Aldrich Corp, St Louis, Mo.) and 0.15% (v/v) H2O2 as a substrate for the MPO. The rate of change in absorbance was measured spectrophotometrically at 460 nm, and is expressed as the amount of enzyme necessary to produce a change in absorbance of 1.0 unit per minute (1 unit) per gram wet weight tissue.

AOM-induced colon cancer = conditions: up to 5.4 ppm in water; cited from earlier work

SMILES: N[C@@H](C[SeH])C(=O)O [selenocysteine]
- dietary supplementation at which toxicity was observed [1]: greater than 10 mg selenium per kg body weight per day

SMILES: C=C(C)[C@H]1Cc2c(ccc3c2O[C@@H]2COc4cc(OC)c(OC)cc4[C@@H]2C3=O)O1 [rotenone]
- respiration (O2 consumption) of colon tissue [2]: strongly inhibited; also recorded: significantly reduced

SMILES: O=[Se](O)O [sodium selenite]
- concentration of maximum stimulation of GPx activity [3]: 0.5 µM
- increase in colon tissue selenium levels compared with healthy rats ([4]; colitis-induced rats, 24 h after TNBS, 16 ppm in water, three weeks (FIG. 1 C and D)): greater
- colon tissue selenium vs untreated controls ([4]; healthy and colitis rats (columns B and D vs A and C), 16 ppm in drinking water, three weeks): enhanced levels
- cytotoxicity at 10 μM [5]: ≤ 60%
- adverse effects of long term supplementation [6]: no observable adverse effects
- lowest concentration giving a significant decrease in UCP2 transcripts (UCP2; 24 and 72 hours (FIG. 10A)): 5 µM
- reduction in detectable UCP2 protein (UCP2; 24 hours at 30 μM (FIG. 10B)): greater than 50%
- lowest concentration effective in reducing UCP2 expression, activated macrophages (UCP2; LPS + INFγ activated, 24 hours, range 0.5-5 μM (FIG. 11)): 1 µM
- lowest concentration effective in reducing MnSOD expression, activated macrophages (MnSOD): 1 µM
- protection against TNBS-induced inflammation (MPO activity) [7]: > 80%

SMILES: C[Se]CC[C@H](N)C(=O)O [selenomethionine]
- anti-cancer treatment effect (AOM-induced colon cancer): ineffective
